Data set [1] concerns the target T1, α-synuclein (Homo sapiens (Human), UniProt P37840). The experiment in a line: In vitro fluorometric α-synuclein binding assay. As to conditions: 2 μM α-synuclein, 37° C., 1 hour, fluorescence. As for the experimental part: (§1) (A) Expression and purification of recombinant wild-type human α-synuclein: 0.5 mM IPTG was used to induce production of wild type human α-synuclein by bacteria transformed with a full-length α-synuclein expression plasmid. After shaking at 16° C. for 20 hours, cell pellet was resuspended in lysis buffer (10 mM Tris, 1 mM EGTA, 0.75 mM NaCl, 1 mM PMSF, pH 7.5) and lysed by sonication followed by centrifugation (6000 g, 30 min, 4° C.). The supernatant was then boiled at 95° C. for 15 min with manual agitation by every 5 minutes, followed by centrifugation (6000 g, 30 min, 4° C.). Supernatant was dialyzed with (10 mM Tris, 1 mM EGTA, 50 mM NaCl, pH 7.5) buffer and concentrated with concentrator. The collected sample was loaded onto a Superdex200 column, the flow-through fraction was then loaded onto a Q-HP column. Collected fractions with α-synuclein eluates were pooled, concentrated and stored at −80° C.
(§2) (B) Preparation of aggregated α-synuclein: 5 mg/mL of α-synuclein in PBS buffer (pH 7.4) was incubated in tube with at 37° C. with shaking (700 rpm) for 5-10 days.
(C) In vitro fluorometric α-synuclein binding assays: 2 μM α-synuclein was incubated with serially diluted compound (three-fold serial dilutions, from 10 to 0.001 μM) in a 96-well plate at 37° C. for 1 hour. Fluorescence intensity was read by microplate spectrometer. Compound Kd values were calculated using the following equation: Y=Bmax*X/(Kd+X), where X is the concentration of compound; Y is the fluorescence signal of (compound+α-synuclein)−(compound+DMSO); and Bmax is the maximum signal.

Data set [2] deals with T1, α-synuclein. The experiment in a line: PBB5 competition assay. The following applies: 2 μM α-synuclein, 0.26 μM PBB5, 37° C., 1 hour. Type of data set: binding. As for the experimental part:
as §1, §2
(D) PBB5 competition assay: 2 μM of α-synuclein was incubated with 0.26 μM 2-(4-(2-(methylamino)pyridine-5-yl)-1,3-butadiene-1-yl)benzothiazole-6-ol (PBB5) and serially diluted compound (three-fold serial dilution, from 10 to 0.001 μM) in a 96-well plate at 37° C. for 1 hour. Fluorescence intensity (excitation/emission=530/690 nm) of PBB5 was read by microplate spectrometer. Percentage of competition was calculated using the following equation: (Max−well of compound alone)/(Max−Min)*100%, where Max=(α-synuclein+PBB5) signals−(buffer+PBB5) signals; and Min=(buffer+PBB5) signals−(buffer+PBB5) signals. The IC50 value of each compound was calculated with GraphPad Prism software using the “4 Parameter Logistic Model or Sigmoidal Dose-Response Model”: Y=Bottom+(Top−Bottom)/(1+(IC50/X)^HillSlope)

The target of the next data set is α-synuclein aggregates (Homo sapiens (Human), UniProt P37840). The experiment in a line: ReNcell VM α-synuclein aggregation assay. The format is cell-based. As to conditions: for DC50: ReNcell VM cells, read-out: Activity (DC50, concentration at which 50% of α-synuclein aggregates has been degraded). As for the experimental part:
The ReNcell VM α-synuclein aggregation assay was conducted at Charles River Laboratories (CRL). ReNcell VM is an immortalized human neural progenitor cell line derived from the ventral mesencephalon region of the brain. ReNcell VM cells were selected as in vitro cellular model for the α-synuclein aggregation assay, based on their growth features, differentiation potential into terminally differentiated neurons and amenability to adenoviral transduction. Aggregated human wild type α-synuclein was overexpressed through adenoviral delivery. Aggregated α-synuclein was detected with the aggregate-selective anti-α-synuclein antibody MJFR14 using immunocytochemistry; total α-synuclein levels were detected with Syn205 (α/β-synuclein-specific antibody).
The ReNcell VM α-synuclein aggregation assay was applied for compound screening to identify compounds capable of degrading α-synuclein aggregates. […] Immunoreactivity toward aggregated (MJFR14) and total α-synuclein (Syn205) was quantified using high content-based segmentation of immunoactive areas in immunocytochemical images (performed with the IN Cell 2200 (GE Healthcare)), followed by quantification of immunofluorescent intensity (performed by CRL's developed algorithm using IN Cell Developer Toolbox software).
Percentage effect (PE): Inhibition in comparison to BLANK (0.1% DMSO).
PE=100−(signal of compound/average signal BLANK)×100
Compound-induced cytotoxicity (% remaining cells)
% remaining cells=(nuclei count of compound/average nuclei count of BLANK)×100

Data set [3] deals with T1, α-synuclein. The experiment in a line: In vivo assay for degrading α-synuclein aggregates (transgenic Line61 mice). As to conditions: 25 mpk, once intravenous, hemibrain, WES System. As for the experimental part: Male transgenic Line61 mice at age of three-month-old were used for the study. Mice were treated once via intravenous injection with the compound 132168 (25 mpk). Plasma and brain samples were collected at 0.25, 0.5, 1, 2, 4, 8 and 24 h post treatment. Blood samples were collected via cardiac puncture into MiniCollect® 0.5 mL K2EDTA (Potassium ethylenediaminetetraacetic acid) tubes. The blood samples were centrifuged at 3000×g for 10 minutes at room temperature (22° C.). Plasma was transferred to a pre-labeled 1.5 ml LoBind Eppendorf tube (2 aliquot, each ˜[…]), frozen on dry ice and stored at −80° C. until analysis. For brain samples, a perfusion with 0.9% saline was performed before collection. Brain was weighed, hemisected on a cooled surface, weighed and snap frozen. The hemibrain was used for WES System analysis of human α-synuclein in soluble and insoluble fraction. Upon treatment of compound 132168, insoluble α-synuclein fraction decreases 30% compared to DMSO vehicle control, reflecting the reduction of insoluble α-synuclein aggregates.

The nature of data set [4]: In vivo pharmacokinetic study. The following applies: mice; for AUC(0-t) / Cmax / Tmax / half-life: mouse. As for the experimental part: To determine whether the compounds of the present disclosure are capable of crossing the blood brain barrier (BBB), example compound 132168 was administered to mice in a pharmacokinetic study (10 and 25 mg/kg, intravenous).
Animal Husbandry: Mice were housed at animal room environment with ventilation 15 times/hour, lighting 12 hours/day, temperature 20° C. to 24° C. and humidity 40% to 70%. The study rooms were disinfected and cleaned prior to the start of the study and the operation area was cleaned after each dosing or sampling during the study conduct. All animals had free access to food and water during the study. The animals had access to Certified Rodent Diet and water ad libitum. The nutritional composition and levels of contaminants of the diet and impurities and contaminants of the water were monitored by third organization. The health status of the animals was evaluated in accordance with accepted animal husbandry procedures and deemed suitable for experimental use.
Sample Collection & Processing: Approximately 110 μL of whole blood were collected from all animals via facial or cardiac puncture under anesthesia with Isoflurane into test tubes containing potassium ethylenediaminetetraacetate (K2EDTA) at 0.25, 0.5, 1, 2, 4, 8 and 24 hr post dose. Brian samples were collected at 0.25, 0.5, 1, 2, 4, 8 and 24 hours post dose. A perfusion with pre-cold saline will be conducted via cardiac puncture before brain collection. Blood samples were centrifuged at 2000 g at 4° C. for 5 minutes to obtain plasma samples by transferring the supernatants into new tubes. All plasma and brain samples were stored at approximately −70° C. until analysis.
Bioanalytical Method Development: The concentrations of compound in plasma and brain samples were determined using a liquid chromatography with tandem mass spectrometry (LC-MS/MS) based method.

Bounds are passed on as bounds.

At α-synuclein [1], `CN(C)c1ccc(-c2ccc(-c3nc4ccc(OCCOCCOc5ccc6c(c5)CN(C5CCC(=O)NC5=O)C6=O)cc4s3)cc2)cn1` (centres unmarked) [Compound 163123] came in with a Kd of 260 nM. The same compound gave an IC50 at α-synuclein [2] of over 10000 nM. Moreover, the DC50 on α-synuclein aggregates was over 10000 nM.

In the case of `O=C1CCC(N2Cc3cc(OCCCC(=O)Nc4ccc(-c5ccc(-c6cc7ccncc7[nH]6)cc5)cn4)ccc3C2=O)C(=O)N1` (centres unmarked) [Compound 166099], the affinity on α-synuclein [1], expressed as Kd, was 5630 nM. In addition, at α-synuclein [2], the IC50 is 40 nM. In addition, the DC50 on α-synuclein aggregates was over 10000 nM.

In turn, `CN(C)c1ccc(-c2ccc(-c3cn4cc(OCCOCCOc5ccc6c(c5)CN(C5CCC(=O)NC5=O)C6=O)ccc4n3)cc2)cn1` (centres unmarked) [Compound 177033] had a Kd at α-synuclein [1] of 650 nM. Besides, the IC50 on α-synuclein [2] was 630 nM. The DC50 at α-synuclein aggregates is over 10000 nM.

In the case of `COc1ccc2nc(-c3ccc(-c4ccnc(NCCCCCOc5ccc6c(c5)CN(C5CCC(=O)NC5=O)C6=O)c4)cc3)cn2c1` (centres unmarked) [Compound 165802], the Kd at α-synuclein [1] was determined as 2440 nM. The IC50 on α-synuclein [2] is over 10000 nM. The DC50 on α-synuclein aggregates was over 10000 nM.

As for `CN(C)c1ccc(-c2ccc(-c3nc4ccc(NCCCCCOc5ccc6c(c5)CN(C5CCC(=O)NC5=O)C6=O)cc4s3)c(C(F)(F)F)c2)cn1` (centres unmarked) [Compound 132168], on α-synuclein [3], the “decrease of insoluble α-synuclein fraction compared to DMSO vehicle control” value turned out to be 30%. For the same compound, in data set [4] (10 and 25 mg/kg intravenous), the “blood brain barrier (BBB) penetration” value is “able to penetrate BBB”. For the same compound, in data set [4] (Brain, 10 mg/kg intravenous), the AUC(0-t) worked out at 1330 ng·h/mL, the Cmax came out at 319 ng/mL, the Tmax was 0.5 h and the half-life is 5.88 h. Further, in data set [4] (Brain, 25 mg/kg intravenous), the AUC(0-t) is 4070 ng·h/mL, the concentration peaked (Cmax) at 581 ng/mL and the Tmax stood at 4 h. In data set [4] (Plasma, 10 mg/kg intravenous), the area under the curve AUC(0-t) was 17800 ng·h/mL and the half-life was 2.87 h. Moreover, in data set [4] (Plasma, 25 mg/kg intravenous), the AUC(0-t) is 48700 ng·h/mL and the half-life is 2.12 h. For the same compound, the “inhibition of MJFR14 immunoreactivity” value on α-synuclein aggregates (6-day treatment, immunocytochemical images) is recorded as “clear inhibition”. At α-synuclein aggregates, the DC50 lay within 10 to 900 nM.

`CN(C)c1ccc(-c2ccc(-c3nc4ccc(C(=O)OCCOCCOCCOc5ccc6c(c5)CN(C5CCC(=O)NC5=O)C6=O)cc4s3)cc2)cn1` (centres unmarked) [Compound 166124] had a Kd at α-synuclein [1] of 340 nM. Moreover, the IC50 on α-synuclein [2] was 30 nM.

Compound `CN(C)c1ccc(-c2ccc(-c3nc4c(OCCOCCOc5ccc6c(c5)CN(C5CCC(=O)NC5=O)C6=O)cccc4s3)cc2)cn1` (centres unmarked) [Compound 166330] displayed a Kd on α-synuclein [1] of 590 nM. Further, the IC50 at α-synuclein [2] was determined as 2600 nM. Moreover, the DC50 at α-synuclein aggregates is over 10000 nM.

Values taken from patent US12377152B2, “Compounds for degrading alpha-synuclein aggregates and uses thereof” (APRINOIA THERAPEUTICS LIMITED, priority 2019, dated 2025).
